Measured values as given in publication PMC10857906, “PROTAC-mediated NR4A1 degradation as a novel strategy for cancer immunotherapy” (The Journal of Experimental Medicine, 2024).

Key:
NR4A1 = molecular target: T1, NR4A1 (Mus musculus, UniProt P12813); experiment: PD: NR4A1 degradation in MC38 tumors in mice (immunoblotting); type: in vivo
T1 construct: from tissue; host or cells: MC38 tumours in mice (tumour lysates)
Protocol: Samples were lysed using radioimmunoprecipitation assay buffer (RIPA) lysis buffer (150 mM NaCl, 5 mM EDTA, 50 mM Tris pH 8.0, 0.5% sodium deoxycholate, 1% NP-40, 0.1% SDS) supplemented with 1 mM dithiothreitol and protease inhibitors. The lysates were separated by SDS-PAGE and analyzed using standard western blotting procedures ([Khan et al., 2019]). Antibodies: human NR4A1 (ab153914, 1:1,000; Abcam), mouse NR4A1 (14-5965-82, 1:1,000; Invitrogen), NR4A2 (AV38753, 1:1,000; Sigma-Aldrich), NR4A3 (TA804893, 1: 1,000; Thermo Fisher Scientific), VHL (68547, 1:1,000; Cell Signaling), β-actin (13E5, 1:5,000; Cell Signaling), β-tubulin (9F3, 1: 5,000; Cell Signaling), and GAPDH (D16H11, 1: 5,000; Cell Signaling) were employed for protein detection.
7–9-wk-old C57BL/6J, B6.129S2-Ighm^tm1Cgn/J (002288), B6.129S2-Nr4a1^tm1Jmi/J (NR4A1^−/−, 006187), and NOD-SCID interleukin-2 receptor gamma null (NSG) mice were purchased from Jackson Laboratories. […]
For syngeneic tumor models, 5 × 10^5 cells MC38, Yumm1.7, and Yummer1.7, 1 × 10^5 cells of B16F10 were resuspended in PBS and implanted into 7–9-wk-old mice subcutaneously. […] Blood samples were taken from the submandibular (facial) vein before each treatment and 42 days later for hematological analysis, and body weight was measured twice per week up to day 42. […]

splenic B cells = experiment: B cell proliferation assay (splenic B cells, B16F10 lysate, Cell Trace Violet); type: cell-based, mouse; conditions: WT B cells with B16F10 lysates, 250 or 500 nM, 24 h
Protocol: B cells were isolated from the spleen by using EasySep Mouse B cell Isolation Kit (19854; STEMCELL) and cultured in RPMI supplemented with […] non-essential amino acids (11140050; Thermo Fisher Scientific), 1 mM sodium pyruvate (11360070; Thermo Fisher Scientific), 1 mM Glutamax, 10 mM HEPES (15630080; Thermo Fisher Scientific), 0.1% 2-mercaptoethanol (21985023; Thermo Fisher Scientific), 10% FBS (F2442; Sigma-Aldrich) and 100 U/ml penicillin, and 100 µg/ml streptomycin (P4333; Sigma-Aldrich). B cells were stained with 5 nM CellTrace Violet Cell (C34557; Thermo Fisher Scientific) for 8 min in a 37°C water bath. B cells were plated at a concentration of 5 × 10^5 cells per 200 μl in round-bottom 96-well plates treated with 0.1% B16F10 melanoma cell lysis or 10 µg/ml goat anti-mouse IgM F(ab′)2 (115-006-020; Jackson ImmunoResearch). B cells were treated with NR-V04 or DMSO for 24 h and collected for flow cytometry analysis.
Mouse tumors were excised and ∼200 mg of tumor tissue was enzymatically and mechanically digested using the mouse Tumor Dissociation Kit (Miltenyi Biotec) to obtain a single-cell suspension. […] Flow cytometry was performed on a three laser Cytek Aurora Cytometer (Cytek Biosciences) and analyzed using FlowJo software (BD Biosciences). […]

T1 sequence (P12813 whole entry): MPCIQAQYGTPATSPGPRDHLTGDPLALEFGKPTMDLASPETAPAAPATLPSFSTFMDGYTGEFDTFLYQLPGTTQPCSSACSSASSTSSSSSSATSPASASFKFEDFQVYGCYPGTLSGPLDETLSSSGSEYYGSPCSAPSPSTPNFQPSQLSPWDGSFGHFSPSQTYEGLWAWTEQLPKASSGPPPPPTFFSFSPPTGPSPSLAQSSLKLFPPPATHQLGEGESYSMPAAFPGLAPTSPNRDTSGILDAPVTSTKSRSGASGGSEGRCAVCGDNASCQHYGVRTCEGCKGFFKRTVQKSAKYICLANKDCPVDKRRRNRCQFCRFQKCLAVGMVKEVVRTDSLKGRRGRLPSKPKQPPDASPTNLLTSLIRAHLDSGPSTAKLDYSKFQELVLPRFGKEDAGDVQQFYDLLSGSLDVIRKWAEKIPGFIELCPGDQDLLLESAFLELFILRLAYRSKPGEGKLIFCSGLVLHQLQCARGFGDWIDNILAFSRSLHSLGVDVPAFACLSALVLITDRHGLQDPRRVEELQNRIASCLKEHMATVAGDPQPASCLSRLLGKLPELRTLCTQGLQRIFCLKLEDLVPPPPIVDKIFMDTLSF

`CC1=C(O)C(=O)C=C2C1=CC=C1[C@@]2(C)CC[C@@]2(C)[C@@H]3C[C@](C)(C(=O)NCCOCCOCCOCCOCC(=O)N[C@H](C(=O)N4C[C@H](O)C[C@H]4C(=O)N[C@@H](C)c4ccc(-c5scnc5C)cc4)C(C)(C)C)CC[C@]3(C)CC[C@]12C` [NR-V04] was tested, and the “NR4A1 protein in MC38 tumors at termination” value (NR4A1; 8 doses for 4 wk, 1.8 mg/kg NR-V04 or 0.75 mg/kg celastrol, every 4 days) was “almost completely degraded”, the “NR4A1 degradation in MC38 tumors” value (NR4A1; two doses of 1.8 mg/kg i.p., tumors collected 1-4 days after the last treatment) was “significant degradation of NR4A1 starting from day 1 and persisting for 3 days” and the B cell proliferation (splenic B cells) was “significantly increased B cell proliferation”. For the same compound, the “NR4A1 in B cells” value (splenic B cells) was “led to NR4A1 degradation in B cells”.
